# From patent US20210254056A1, “IDENTIFICATION AND TARGETED MODULATION OF GENE SIGNALING NETWORKS” (CAMP4 THERAPEUTICS CORPORATION, priority 2017, published 2021)
# System: hepatocytes
# Experiment: RNA-seq of hepatocytes treated with Phase III failure compounds
# Method: RNA-seq was performed to determine the effects of the compounds on hepatocytes.
# Significance was determined by the criteria of FPKM≥0.5, a log 2(fold-change)≥1, and a […].
smiles,measurement,setting,value
"CCC(CC)[C@H](NC(C)=O)[C@@H]1[C@H](O)[C@@H](C(=O)O)C[C@H]1NC(=N)N.O.O.O [peramivir (trihydrate), peramivir]","RNA-seq results, gene PFKM",PFKM expression in hepatocytes,0.02
same,"RNA-seq results, gene PGM1",PGM1 expression in hepatocytes,0.01
same,"RNA-seq results, gene PHGDH",PHGDH expression in hepatocytes,0.67
same,"RNA-seq results, gene PHKA1",PHKA1 expression in hepatocytes,0.42
same,"RNA-seq results, gene PHKA2",PHKA2 expression in hepatocytes,−0.03
same,"RNA-seq results, gene PHKB",PHKB expression in hepatocytes,−0.06
same,"RNA-seq results, gene PHYH",PHYH expression in hepatocytes,−0.05
same,"RNA-seq results, gene PIEZO1",PIEZO1 expression in hepatocytes,0.08
same,"RNA-seq results, gene PIGA",PIGA expression in hepatocytes,−0.01
same,"RNA-seq results, gene PIGM",PIGM expression in hepatocytes,0.04
same,"RNA-seq results, gene PKD1",PKD1 expression in hepatocytes,0.39
same,"RNA-seq results, gene PKD2",PKD2 expression in hepatocytes,−0.13
same,"RNA-seq results, gene PKHD1",PKHD1 expression in hepatocytes,−0.79
same,"RNA-seq results, gene PKLR",PKLR expression in hepatocytes,0.01
same,"RNA-seq results, gene PLA2G6",PLA2G6 expression in hepatocytes,0.31
same,"RNA-seq results, gene PLEKHM1",PLEKHM1 expression in hepatocytes,0.52
same,"RNA-seq results, gene PMVK",PMVK expression in hepatocytes,0.33
same,"RNA-seq results, gene PNP",PNP expression in hepatocytes,0.05
same,"RNA-seq results, gene PNPLA2",PNPLA2 expression in hepatocytes,0.19
same,significant modulation of expression of disease genes,"RNA-seq, q≤0.05, hepatocytes, genes in the value or listed in the block",significantly (q≤0.05) modulate expression of RMRP
same,RNA-seq results: A1BG expression,"gene A1BG, hepatocytes",0.02
same,RNA-seq results: AARS2 expression,"gene AARS2, hepatocytes",0.27
same,RNA-seq results: AASS expression,"gene AASS, hepatocytes",−0.12
same,RNA-seq results: ABAT expression,"gene ABAT, hepatocytes",−0.09
same,RNA-seq results: ABCA1 expression,"gene ABCA1, hepatocytes",−0.04
same,RNA-seq results: ABCB4 expression,"gene ABCB4, hepatocytes",0.01
same,RNA-seq results: ABCB11 expression,"gene ABCB11, hepatocytes",0.20
same,RNA-seq results: ABCC2 expression,"gene ABCC2, hepatocytes",0.02
same,RNA-seq results: ABCC3 expression,"gene ABCC3, hepatocytes",0.32
same,RNA-seq results: ABCC6 expression,"gene ABCC6, hepatocytes",0.47
same,RNA-seq results: ABCD1 expression,"gene ABCD1, hepatocytes",0.25
same,RNA-seq results: ABCD3 expression,"gene ABCD3, hepatocytes",−0.28
same,RNA-seq results: ABCG5 expression,"gene ABCG5, hepatocytes",0.09
same,RNA-seq results: ABCG8 expression,"gene ABCG8, hepatocytes",0.06
same,RNA-seq results: ABHD5 expression,"gene ABHD5, hepatocytes",−0.22
same,RNA-seq results: ACACA expression,"gene ACACA, hepatocytes",0.04
same,RNA-seq results: ACACB expression,"gene ACACB, hepatocytes",0.36
same,RNA-seq results: ACAD9 expression,"gene ACAD9, hepatocytes",0.00
same,RNA-seq results: ACADSB expression,"gene ACADSB, hepatocytes",−0.29
same,RNA-seq results: ACADVL expression,"gene ACADVL, hepatocytes",0.30
same,RNA-seq results: ACOT8 expression,"gene ACOT8, hepatocytes",−0.13
same,RNA-seq results: ACOX2 expression,"gene ACOX2, hepatocytes",−0.03
same,RNA-seq results: ACOX3 expression,"gene ACOX3, hepatocytes",−0.01
same,RNA-seq results: ACSF3 expression,"gene ACSF3, hepatocytes",0.08
same,RNA-seq results: ACSL1 expression,"gene ACSL1, hepatocytes",−0.03
same,RNA-seq results: ACSL3 expression,"gene ACSL3, hepatocytes",−0.34
same,RNA-seq results: ACTG2 expression,"gene ACTG2, hepatocytes",−1.66
same,RNA-seq results: ACTN1 expression,"gene ACTN1, hepatocytes",−0.03
same,RNA-seq results: ADA expression,"gene ADA, hepatocytes",0.16
same,RNA-seq results: ADCK3 expression,"gene ADCK3, hepatocytes",−0.02
same,RNA-seq results: ADK expression,"gene ADK, hepatocytes",−0.46
same,RNA-seq results: ADSL expression,"gene ADSL, hepatocytes",−0.36
same,RNA-seq results: AFP expression,"gene AFP, hepatocytes",−0.31
same,RNA-seq results: AGK expression,"gene AGK, hepatocytes",−0.24
same,RNA-seq results: AGL expression,"gene AGL, hepatocytes",−0.20
same,RNA-seq results: AGPAT2 expression,"gene AGPAT2, hepatocytes",0.36
same,RNA-seq results: AGPS expression,"gene AGPS, hepatocytes",−0.31
same,RNA-seq results: AGT expression,"gene AGT, hepatocytes",−0.08
same,RNA-seq results: AGTR1 expression,"gene AGTR1, hepatocytes",−0.40
same,RNA-seq results: AGXT expression,"gene AGXT, hepatocytes",0.44
same,RNA-seq results: AHI1 expression,"gene AHI1, hepatocytes",−0.18
same,RNA-seq results: AHSG expression,"gene AHSG, hepatocytes",0.03
same,RNA-seq results: AK1 expression,"gene AK1, hepatocytes",−0.06
same,RNA-seq results: AKR1C1 expression,"gene AKR1C1, hepatocytes",−0.24
same,RNA-seq results: AKR1C2 expression,"gene AKR1C2, hepatocytes",0.07
same,RNA-seq results: AKR1C4 expression,"gene AKR1C4, hepatocytes",−0.41
same,RNA-seq results: AKR1D1 expression,"gene AKR1D1, hepatocytes",−0.04
same,RNA-seq results: ALAD expression,"gene ALAD, hepatocytes",0.07
same,RNA-seq results: ALAS1 expression,"gene ALAS1, hepatocytes",−0.13
same,RNA-seq results: ALDH1B1 expression,"gene ALDH1B1, hepatocytes",0.10
same,RNA-seq results: ALDH2 expression,"gene ALDH2, hepatocytes",0.07
same,RNA-seq results: ALDH6A1 expression,"gene ALDH6A1, hepatocytes",−0.48
same,RNA-seq results: ALDOA expression,"gene ALDOA, hepatocytes",0.01
same,RNA-seq results: ALDOB expression,"gene ALDOB, hepatocytes",−0.08
same,RNA-seq results: ALG12 expression,"gene ALG12, hepatocytes",0.02
same,RNA-seq results: ALMS1 expression,"gene ALMS1, hepatocytes",−0.05
same,RNA-seq results: ALPL expression,"gene ALPL, hepatocytes",−0.08
same,RNA-seq results: AMACR expression,"gene AMACR, hepatocytes",−0.17
same,RNA-seq results: AMPD3 expression,"gene AMPD3, hepatocytes",0.13
same,RNA-seq results: AMT expression,"gene AMT, hepatocytes",0.24
same,RNA-seq results: ANGPTL3 expression,"gene ANGPTL3, hepatocytes",−0.42
same,RNA-seq results: ANKS4B expression,"gene ANKS4B, hepatocytes",−0.06
same,RNA-seq results: ANKS6 expression,"gene ANKS6, hepatocytes",0.15
same,RNA-seq results: ANPEP expression,"gene ANPEP, hepatocytes",0.07
same,RNA-seq results: AOC2 expression,"gene AOC2, hepatocytes",0.42
same,RNA-seq results: AP3B1 expression,"gene AP3B1, hepatocytes",−0.40
same,RNA-seq results: APC expression,"gene APC, hepatocytes",−0.20
same,RNA-seq results: APOA1 expression,"gene APOA1, hepatocytes",−0.02
same,RNA-seq results: APOA2 expression,"gene APOA2, hepatocytes",−0.52
same,RNA-seq results: APOA5 expression,"gene APOA5, hepatocytes",0.13
same,RNA-seq results: APOB expression,"gene APOB, hepatocytes",−0.10
same,RNA-seq results: APOC2 expression,"gene APOC2, hepatocytes",−0.17
same,RNA-seq results: APOC3 expression,"gene APOC3, hepatocytes",−0.06
same,RNA-seq results: APOE expression,"gene APOE, hepatocytes",0.04
same,RNA-seq results: APRT expression,"gene APRT, hepatocytes",0.23
same,RNA-seq results: AQP7 expression,"gene AQP7, hepatocytes",−0.41
same,RNA-seq results: AQP9 expression,"gene AQP9, hepatocytes",−0.29
same,RNA-seq results: ARG1 expression,"gene ARG1, hepatocytes",0.02
same,RNA-seq results: ARG2 expression,"gene ARG2, hepatocytes",−0.34
same,RNA-seq results: ARL13B expression,"gene ARL13B, hepatocytes",−0.24
same,RNA-seq results: ARSA expression,"gene ARSA, hepatocytes",0.49
same,RNA-seq results: ARSB expression,"gene ARSB, hepatocytes",0.03
same,RNA-seq results: ASL expression,"gene ASL, hepatocytes",0.25
same,RNA-seq results: ASNS expression,"gene ASNS, hepatocytes",−0.22
same,RNA-seq results: ASPA expression,"gene ASPA, hepatocytes",−0.10
same,RNA-seq results: ASXL1 expression,"gene ASXL1, hepatocytes",0.09
same,RNA-seq results: ATG7 expression,"gene ATG7, hepatocytes",−0.05
same,RNA-seq results: ATIC expression,"gene ATIC, hepatocytes",−0.26
same,RNA-seq results: ATM expression,"gene ATM, hepatocytes",0.16
same,RNA-seq results: ATP7A expression,"gene ATP7A, hepatocytes",−0.27
same,RNA-seq results: ATP7B expression,"gene ATP7B, hepatocytes",0.00
same,RNA-seq results: ATP8B1 expression,"gene ATP8B1, hepatocytes",−0.26
same,RNA-seq results: B2M expression,"gene B2M, hepatocytes",−0.52
same,RNA-seq results: B9D2 expression,"gene B9D2, hepatocytes",0.35
same,RNA-seq results: BAAT expression,"gene BAAT, hepatocytes",−0.23
same,RNA-seq results: BBOX1 expression,"gene BBOX1, hepatocytes",−0.71
same,RNA-seq results: BBS10 expression,"gene BBS10, hepatocytes",−0.36
same,RNA-seq results: BCHE expression,"gene BCHE, hepatocytes",−0.32
same,RNA-seq results: BCKDHB expression,"gene BCKDHB, hepatocytes",−0.10
